Laboratory results as given in ChEMBL document CHEMBL4219190, “Studies on synthesis of novel pyrido[2,3-d]pyrimidine derivatives, evaluation of their antimicrobial activity and molecular docking” (Bioorg Med Chem Lett, 2018).
≈ marks a conversion by molar mass, not a printed value. Calls of active or inactive are those of the source. No cut-off for these calls is given here.

Columns and labels:
Raoultella planticola [1] = assay: Bactericidal activity against Klebsiella planticola MTCC 530 incubated for 24 hrs followed by transfer of microbial suspension to Mueller Hinton agar plates and measured after 24 hrs post transfer; assay type: functional; conditions: MTCC 530, 24 h
Pichia kudriavzevii [2] = assay: Antifungal activity against Candida krusei MTCC 3020 after 24 hrs by well diffusion method; assay type: functional
[Candida] aaseri [3] = Antifungal activity against Candida aaseri MTCC 1962 after 24 hrs by well diffusion method; assay type: functional; conditions: Yamadazyma aaseri, MTCC 1962, 24 h
Escherichia coli [4] = assay: Bactericidal activity against Escherichia coli MTCC 739 incubated for 24 hrs followed by transfer of microbial suspension to Mueller Hinton agar plates and measured after 24 hrs post transfer; assay type: functional; conditions: MTCC 739, 24 h
Staphylococcus aureus [5] = assay: Antibacterial activity against Staphylococcus aureus MLS16 MTCC 2940 after 24 hrs by well diffusion method; assay type: functional; conditions: MLS16 MTCC 2940, 24 h
Bacillus subtilis [6] = assay: Antibacterial activity against Bacillus subtilis MTCC 121 after 24 hrs by well diffusion method; assay type: functional; conditions: MTCC 121, 24 h
Candida parapsilosis [7] = assay: Antifungal activity against Candida parapsilosis MTCC 1744 after 24 hrs by well diffusion method; assay type: functional; conditions: MTCC 1744, 24 h
[Candida] aaseri [8] = Fungicidal activity against Candida aaseri MTCC 1962 incubated for 24 hrs followed by transfer of microbial suspension to Sabouraud dextrose agar plates and measured after 24 hrs post transfer; assay type: functional; conditions: Yamadazyma aaseri, MTCC 1962, 24 h
Pseudomonas aeruginosa [9] = assay: Antibacterial activity against Pseudomonas aeruginosa MTCC 2453 after 24 hrs by well diffusion method; assay type: functional; conditions: MTCC 2453, 24 h
Staphylococcus aureus [10] = assay: Antibiofilm activity against Staphylococcus aureus MLS16 MTCC 2940 after 24 hrs by crystal violet staining-based assay; assay type: functional, organism-based; conditions: Staphylococcus aureus, MLS16 MTCC 2940, 24 h; read-out: IC50
Candida albicans [11] = assay: Antifungal activity against Candida albicans MTCC 4748 after 24 hrs by well diffusion method; assay type: functional; conditions: MTCC 4748, 24 h
Candida albicans [12] = assay: Antifungal activity against Candida albicans MTCC 1637 after 24 hrs by well diffusion method; assay type: functional; conditions: MTCC 1637, 24 h
Candida albicans [13] = assay: Fungicidal activity against Candida albicans MTCC 183 incubated for 24 hrs followed by transfer of microbial suspension to Sabouraud dextrose agar plates and measured after 24 hrs post transfer; assay type: functional; conditions: MTCC 183, 24 h
Staphylococcus aureus [14] = assay: Antibacterial activity against Staphylococcus aureus MTCC 96 after 24 hrs by well diffusion method; assay type: functional; conditions: MTCC 96, 24 h
Candida albicans [15] = assay: Fungicidal activity against Candida albicans MTCC 7315 incubated for 24 hrs followed by transfer of microbial suspension to Sabouraud dextrose agar plates and measured after 24 hrs post transfer; assay type: functional; conditions: MTCC 7315, 24 h
Candida albicans [16] = assay: Antifungal activity against Candida albicans MTCC 7315 after 24 hrs by well diffusion method; assay type: functional; conditions: MTCC 7315, 24 h
Candida albicans [17] = assay: Antifungal activity against Candida albicans MTCC 3017 after 24 hrs by well diffusion method; assay type: functional; conditions: MTCC 3017, 24 h
Candida albicans [18] = assay: Antifungal activity against Candida albicans MTCC 854 after 24 hrs by well diffusion method; assay type: functional; conditions: MTCC 854, 24 h
Micrococcus luteus [19] = assay: Antibacterial activity against Micrococcus luteus MTCC 2470 after 24 hrs by well diffusion method; assay type: functional; conditions: MTCC 2470, 24 h
Candida albicans [20] = assay: Fungicidal activity against Candida albicans MTCC 854 incubated for 24 hrs followed by transfer of microbial suspension to Sabouraud dextrose agar plates and measured after 24 hrs post transfer; assay type: functional; conditions: MTCC 854, 24 h
Candida albicans [21] = assay: Fungicidal activity against Candida albicans MTCC 3017 incubated for 24 hrs followed by transfer of microbial suspension to Sabouraud dextrose agar plates and measured after 24 hrs post transfer; assay type: functional; conditions: MTCC 3017, 24 h
Candida albicans [22] = assay: Antifungal activity against Candida albicans MTCC 227 after 24 hrs by well diffusion method; assay type: functional; conditions: MTCC 227, 24 h
Staphylococcus aureus [23] = assay: Antibiofilm activity against Staphylococcus aureus MTCC 96 after 24 hrs by crystal violet staining-based assay; assay type: functional, organism-based; conditions: Staphylococcus aureus, MTCC 96, 24 h; read-out: IC50
Candida albicans [24] = assay: Fungicidal activity against Candida albicans MTCC 1637 incubated for 24 hrs followed by transfer of microbial suspension to Sabouraud dextrose agar plates and measured after 24 hrs post transfer; assay type: functional; conditions: MTCC 1637, 24 h
Candida albicans [25] = assay: Antifungal activity against Candida albicans MTCC 3018 after 24 hrs by well diffusion method; assay type: functional; conditions: MTCC 3018, 24 h
Nakaseomyces glabratus [26] = assay: Fungicidal activity against Candida glabrata MTCC 3019 incubated for 24 hrs followed by transfer of microbial suspension to Sabouraud dextrose agar plates and measured after 24 hrs post transfer; assay type: functional; conditions: MTCC 3019, 24 h
Nakaseomyces glabratus [27] = assay: Antifungal activity against Candida glabrata MTCC 3019 after 24 hrs by well diffusion method; assay type: functional; conditions: MTCC 3019, 24 h
Bacillus subtilis [28] = assay: Bactericidal activity against Bacillus subtilis MTCC 121 incubated for 24 hrs followed by transfer of microbial suspension to Mueller Hinton agar plates and measured after 24 hrs post transfer; assay type: functional; conditions: MTCC 121, 24 h
Pichia sporocuriosa [29] = assay: Fungicidal activity against Issatchenkia hanoiensis MTCC 4755 incubated for 24 hrs followed by transfer of microbial suspension to Sabouraud dextrose agar plates and measured after 24 hrs post transfer; assay type: functional; conditions: MTCC 4755, 24 h
Escherichia coli [30] = assay: Antibacterial activity against Escherichia coli MTCC 739 after 24 hrs by well diffusion method; assay type: functional; conditions: MTCC 739, 24 h
Candida albicans [31] = assay: Antifungal activity against Candida albicans MTCC 3958 after 24 hrs by well diffusion method; assay type: functional; conditions: MTCC 3958, 24 h
Staphylococcus aureus [32] = assay: Bactericidal activity against Staphylococcus aureus MLS16 MTCC 2940 incubated for 24 hrs followed by transfer of microbial suspension to Mueller Hinton agar plates and measured after 24 hrs post transfer; assay type: functional; conditions: MLS16 MTCC 2940, 24 h
Pichia kudriavzevii [33] = assay: Fungicidal activity against Candida krusei MTCC 3020 incubated for 24 hrs followed by transfer of microbial suspension to Sabouraud dextrose agar plates and measured after 24 hrs post transfer; assay type: functional
Pseudomonas aeruginosa [34] = assay: Antibiofilm activity against Pseudomonas aeruginosa MTCC 2453 after 24 hrs by crystal violet staining-based assay; assay type: functional, organism-based; conditions: Pseudomonas aeruginosa, MTCC 2453, 24 h; read-out: IC50
Candida albicans [35] = assay: Antifungal activity against Candida albicans MTCC 183 after 24 hrs by well diffusion method; assay type: functional; conditions: MTCC 183, 24 h
Bacillus subtilis [36] = assay: Antibiofilm activity against Bacillus subtilis MTCC 121 after 24 hrs by crystal violet staining-based assay; assay type: functional, organism-based; conditions: Bacillus subtilis, MTCC 121, 24 h; read-out: IC50
Staphylococcus aureus [37] = assay: Bactericidal activity against Staphylococcus aureus MTCC 96 incubated for 24 hrs followed by transfer of microbial suspension to Mueller Hinton agar plates and measured after 24 hrs post transfer; assay type: functional; conditions: MTCC 96, 24 h
Candida albicans [38] = assay: Fungicidal activity against Candida albicans MTCC 4748 incubated for 24 hrs followed by transfer of microbial suspension to Sabouraud dextrose agar plates and measured after 24 hrs post transfer; assay type: functional; conditions: MTCC 4748, 24 h
Pichia sporocuriosa [39] = assay: Antifungal activity against Issatchenkia hanoiensis MTCC 4755 after 24 hrs by well diffusion method; assay type: functional; conditions: MTCC 4755, 24 h
Raoultella planticola [40] = assay: Antibiofilm activity against Klebsiella planticola MTCC 530 after 24 hrs by crystal violet staining-based assay; assay type: functional, organism-based; conditions: Klebsiella planticola, MTCC 530, 24 h; read-out: IC50
Candida parapsilosis [41] = assay: Fungicidal activity against Candida parapsilosis MTCC 1744 incubated for 24 hrs followed by transfer of microbial suspension to Sabouraud dextrose agar plates and measured after 24 hrs post transfer; assay type: functional; conditions: Lodderomyces parapsilosis, MTCC 1744, 24 h
Raoultella planticola [42] = assay: Antibacterial activity against Klebsiella planticola MTCC 530 after 24 hrs by well diffusion method; assay type: functional; conditions: MTCC 530, 24 h
Micrococcus luteus [43] = assay: Bactericidal activity against Micrococcus luteus MTCC 2470 incubated for 24 hrs followed by transfer of microbial suspension to Mueller Hinton agar plates and measured after 24 hrs post transfer; assay type: functional; conditions: MTCC 2470, 24 h
Pseudomonas aeruginosa [44] = assay: Bactericidal activity against Pseudomonas aeruginosa MTCC 2453 incubated for 24 hrs followed by transfer of microbial suspension to Mueller Hinton agar plates and measured after 24 hrs post transfer; assay type: functional; conditions: MTCC 2453, 24 h
Candida albicans [45] = assay: Fungicidal activity against Candida albicans MTCC 227 incubated for 24 hrs followed by transfer of microbial suspension to Sabouraud dextrose agar plates and measured after 24 hrs post transfer; assay type: functional; conditions: MTCC 227, 24 h
Candida albicans [46] = assay: Fungicidal activity against Candida albicans MTCC 3958 incubated for 24 hrs followed by transfer of microbial suspension to Sabouraud dextrose agar plates and measured after 24 hrs post transfer; assay type: functional; conditions: MTCC 3958, 24 h
Candida albicans [47] = assay: Fungicidal activity against Candida albicans MTCC 3018 incubated for 24 hrs followed by transfer of microbial suspension to Sabouraud dextrose agar plates and measured after 24 hrs post transfer; assay type: functional; conditions: MTCC 3018, 24 h

In the case of `COc1ccc(-c2nc(C(=O)N3CCN(C)CC3)nc3nc(-c4ccccc4)cc(C(F)(F)F)c23)cc1`, the MBC (Raoultella planticola [1]) was 31.2 µg/mL (≈ 61.5 µM), the MIC (Pichia kudriavzevii [2]) was “inactive” and the MIC ([Candida] aaseri [3]) was 15.6 µg/mL (≈ 30.7 µM). For the same compound, the MBC (Escherichia coli [4]) was 31.2 µg/mL (≈ 61.5 µM), the MIC (Staphylococcus aureus [5]) was 15.6 µg/mL (≈ 30.7 µM) and the MIC (Bacillus subtilis [6]) was 7.8 µg/mL (≈ 15.4 µM). The MIC (Candida parapsilosis [7]) was 15.6 µg/mL (≈ 30.7 µM), the MFC ([Candida] aaseri [8]) was 31.2 µg/mL (≈ 61.5 µM) and the MIC (Pseudomonas aeruginosa [9]) was 7.8 µg/mL (≈ 15.4 µM). For the same compound, the IC50 (Staphylococcus aureus [10]) was 10.8 µg/mL (≈ 21.3 µM), the MIC (Candida albicans [11]) was 62.5 µg/mL (≈ 123 µM) and the MIC (Candida albicans [12]) was 15.6 µg/mL (≈ 30.7 µM). The MFC (Candida albicans [13]) was 7.8 µg/mL (≈ 15.4 µM), the MIC (Staphylococcus aureus [14]) was 7.8 µg/mL (≈ 15.4 µM) and the MFC (Candida albicans [15]) was 62.5 µg/mL (≈ 123 µM). It also gave an MIC (Candida albicans [16]) of 31.2 µg/mL (≈ 61.5 µM), an MIC (Candida albicans [17]) of 3.9 µg/mL (≈ 7.68 µM) and an MIC (Candida albicans [18]) of 15.6 µg/mL (≈ 30.7 µM). The MIC (Micrococcus luteus [19]) was 15.6 µg/mL (≈ 30.7 µM), the MFC (Candida albicans [20]) was 31.2 µg/mL (≈ 61.5 µM) and the MFC (Candida albicans [21]) was 7.8 µg/mL (≈ 15.4 µM). The MIC (Candida albicans [22]) was 31.2 µg/mL (≈ 61.5 µM), the IC50 (Staphylococcus aureus [23]) was 5.4 µg/mL (≈ 10.6 µM) and the MFC (Candida albicans [24]) was 31.2 µg/mL (≈ 61.5 µM). The MIC (Candida albicans [25]) was 31.2 µg/mL (≈ 61.5 µM), the MFC (Nakaseomyces glabratus [26]) was 15.6 µg/mL (≈ 30.7 µM) and the MIC (Nakaseomyces glabratus [27]) was 7.8 µg/mL (≈ 15.4 µM). For the same compound, the MBC (Bacillus subtilis [28]) was 15.6 µg/mL (≈ 30.7 µM), the MFC (Pichia sporocuriosa [29]) was 15.6 µg/mL (≈ 30.7 µM) and the MIC (Escherichia coli [30]) was 15.6 µg/mL (≈ 30.7 µM). For the same compound, the MIC (Candida albicans [31]) was 62.5 µg/mL (≈ 123 µM), the MBC (Staphylococcus aureus [32]) was 15.6 µg/mL (≈ 30.7 µM) and the MFC (Pichia kudriavzevii [33]) was “inactive”. The IC50 (Pseudomonas aeruginosa [34]) was 2.7 µg/mL (≈ 5.32 µM), the MIC (Candida albicans [35]) was 3.9 µg/mL (≈ 7.68 µM) and the IC50 (Bacillus subtilis [36]) was 2.7 µg/mL (≈ 5.32 µM). For the same compound, the MBC (Staphylococcus aureus [37]) was 15.6 µg/mL (≈ 30.7 µM), the MFC (Candida albicans [38]) was 62.5 µg/mL (≈ 123 µM) and the MIC (Pichia sporocuriosa [39]) was 7.8 µg/mL (≈ 15.4 µM). It also gave an IC50 (Raoultella planticola [40]) of 10.8 µg/mL (≈ 21.3 µM), an MFC (Candida parapsilosis [41]) of 31.2 µg/mL (≈ 61.5 µM) and an MIC (Raoultella planticola [42]) of 15.6 µg/mL (≈ 30.7 µM). For the same compound, the MBC (Micrococcus luteus [43]) was 31.2 µg/mL (≈ 61.5 µM), the MBC (Pseudomonas aeruginosa [44]) was 15.6 µg/mL (≈ 30.7 µM) and the MFC (Candida albicans [45]) was 31.2 µg/mL (≈ 61.5 µM). It also gave an MFC (Candida albicans [46]) of 62.5 µg/mL (≈ 123 µM) and an MFC (Candida albicans [47]) of 62.5 µg/mL (≈ 123 µM).
